Test results taken from US20260176320A1, “MODULATORS OF G-PROTEIN COUPLED RECEPTORS” (priority 2018, published 2026).
Like-named read-outs stand apart in the source and are kept apart here.

Assays:
Assay type in all cases: cell-based
GLP-1R [1] = target: T1, GLP-1R (Homo sapiens, UniProt P43220); assay: PathHunter β-arrestin assay
In short: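 Cells (5,000/well) plated overnight, then exposed to a 22-point 2-fold agonist dilution series in medium with 0.2% BSA for 90 min at 37 °C, 5% CO2. PathHunter detection reagent added; after 3 h at room temperature in the dark, luminescence read.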

GLP-1R [2] = target: T1, GLP-1R; assay: HitHunter cAMP assay (GLP-1R); details: cAMP; for Emax: read-out: (Emax) GLP-1R
In short: (§1)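 Suspension cells (10,000/well) in HBSS with 10 mM HEPES, 625 μM IBMX, 0.2% BSA exposed to 22-point 2-fold agonist series in duplicate for 30 min at room temperature. cAMP measured by antibody immunocompetition with overnight development, luminescence read-out.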

GIP-R = target: T2, GIP-R (Homo sapiens, UniProt P48546); assay: HitHunter cAMP assay (GIP-R); details: cAMP; for Emax: read-out: (Emax) GIP-R
T2 sequence (P48546 22-466): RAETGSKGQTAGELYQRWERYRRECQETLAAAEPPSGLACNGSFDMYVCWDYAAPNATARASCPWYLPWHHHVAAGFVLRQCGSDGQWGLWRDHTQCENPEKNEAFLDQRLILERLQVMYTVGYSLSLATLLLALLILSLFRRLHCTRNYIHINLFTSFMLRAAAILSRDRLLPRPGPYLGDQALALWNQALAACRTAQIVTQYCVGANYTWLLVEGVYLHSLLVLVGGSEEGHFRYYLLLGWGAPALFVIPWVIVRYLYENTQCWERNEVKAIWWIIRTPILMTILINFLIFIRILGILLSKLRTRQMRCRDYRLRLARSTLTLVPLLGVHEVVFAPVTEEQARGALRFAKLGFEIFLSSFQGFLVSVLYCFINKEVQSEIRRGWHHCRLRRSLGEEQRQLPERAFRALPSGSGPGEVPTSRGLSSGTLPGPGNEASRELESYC
In short: as §1

[3] = PathHunter β-arrestin assay, read-out: β-arrestin activity EC50
[4] = Table 3, read-out: EC50 GLP-1R/nM
[5] = Table 3A, read-out: EC50 GLP-1R/nM
[6] = Table 3, read-out: EC50 GIP-R/nM
[7] = Table 3A, read-out: EC50 GIP-R/nM

T1 sequence (P43220 24-463): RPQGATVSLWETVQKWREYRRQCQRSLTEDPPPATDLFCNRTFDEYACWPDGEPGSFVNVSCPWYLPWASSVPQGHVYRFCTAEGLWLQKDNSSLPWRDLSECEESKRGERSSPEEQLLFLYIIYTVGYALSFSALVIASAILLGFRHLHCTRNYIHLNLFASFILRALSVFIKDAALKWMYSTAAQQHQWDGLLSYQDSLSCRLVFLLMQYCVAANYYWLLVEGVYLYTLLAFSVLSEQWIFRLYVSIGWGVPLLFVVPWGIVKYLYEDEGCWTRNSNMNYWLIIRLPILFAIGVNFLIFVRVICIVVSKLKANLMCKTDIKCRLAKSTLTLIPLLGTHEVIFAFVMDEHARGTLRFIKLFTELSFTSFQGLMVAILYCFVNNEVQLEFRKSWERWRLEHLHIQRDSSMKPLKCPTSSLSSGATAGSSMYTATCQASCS

Row | Structure (SMILES) | EC50 (GLP-1R [1]) [nM] | EC50 (GLP-1R [2]; EC50 GLP-1R/nM, Table 3) [nM] | EC50 (GLP-1R [2]; EC50 GLP-1R/nM, Table 3A) [nM] | Emax (GLP-1R [2]; Table 3) [%] | Emax (GLP-1R [2]; Table 3A) [%] | EC50 (GIP-R; EC50 GIP-R/nM, Table 3) [nM] | EC50 (GIP-R; EC50 GIP-R/nM, Table 3A) [nM] | Emax (GIP-R; Table 3) [%] | Emax (GIP-R; Table 3A) [%] | EC50 (GLP-1R [1]; [3]) [nM] | EC50 (GLP-1R [2]; [4]) [nM] | EC50 (GLP-1R [2]; [5]) [nM] | EC50 (GIP-R; [6]) [nM] | EC50 (GIP-R; [7]) [nM] | EC50 (GIP-R; read-out: EC50 GIP-R/nM, Table 3A) [nM]
1 | CCCCCCCCCCCCCCCC(=O)N[C@@H](CCC(=O)NCCCC[C@H](NC(=O)[C@H](CO)NC(=O)[C@@H]1CCCN1C(=O)[C@@H]1CCCN1C(=O)[C@@H]1CCCN1C(=O)[C@H](C)NC(=O)CNC(=O)[C@H](CO)NC(=O)[C@H](CO)NC(=O)[C@@H]1CCCN1C(=O)CNC(=O)CNC(=O)[C@H](C)NC(=O)[C@H](CC(C)C)NC(=O)[C@H](CC(C)C)NC(=O)[C@H](Cc1c[nH]c2ccccc12)NC(=O)[C@H](CC(N)=O)NC(=O)[C@@H](NC(=O)[C@H](Cc1ccccc1)NC(=O)[C@H](CCC(=O)O)NC(=O)C(C)(C)NC(=O)[C@H](C)NC(=O)[C@H](C)NC(=O)[C@H](CCC(N)=O)NC(=O)[C@H](CCCCN)NC(=O)[C@H](CC(=O)O)NC(=O)[C@H](CC(C)C)NC(=O)[C@H](Cc1ccc(O)cc1)NC(=O)[C@@H](NC(=O)[C@H](CO)NC(=O)[C@H](Cc1ccc(O)cc1)NC(=O)[C@H](CC(=O)O)NC(=O)[C@H](CO)NC(=O)[C@@H](NC(=O)[C@H](Cc1ccccc1)NC(=O)[C@@H](NC(=O)CNC(=O)[C@H](CCC(=O)O)NC(=O)CSCC(=O)NCCN1CCS(=O)(=O)CC1=O)[C@@H](C)O)[C@@H](C)O)[C@@H](C)CC)C(C)C)C(N)=O)C(=O)O [Compound 29] | > 1000 | 1 to 10 | 1 to 10 | 98 | 98 | 1 to 10 | 100 to 1000 | 11 | 11 | – | – | – | – | – | –
2 | CCCCCCCCCCCCCCCC(=O)N[C@@H](CCC(=O)NCCCC[C@H](NC(=O)[C@H](CO)NC(=O)[C@@H]1CCCN1C(=O)[C@@H]1CCCN1C(=O)[C@@H]1CCCN1C(=O)[C@H](C)NC(=O)CNC(=O)[C@H](CO)NC(=O)[C@H](CO)NC(=O)[C@@H]1CCCN1C(=O)CNC(=O)CNC(=O)[C@H](C)NC(=O)[C@H](CC(C)C)NC(=O)[C@H](CC(C)C)NC(=O)[C@H](Cc1c[nH]c2ccccc12)NC(=O)[C@H](CC(N)=O)NC(=O)[C@@H](NC(=O)[C@H](Cc1ccccc1)NC(=O)[C@H](CCC(=O)O)NC(=O)C(C)(C)NC(=O)[C@H](C)NC(=O)[C@H](C)NC(=O)[C@H](CCC(N)=O)NC(=O)[C@H](CCCCN)NC(=O)[C@H](CC(=O)O)NC(=O)[C@H](CC(C)C)NC(=O)[C@H](Cc1ccc(O)cc1)NC(=O)[C@@H](NC(=O)[C@H](CO)NC(=O)[C@H](Cc1ccc(O)cc1)NC(=O)[C@H](CC(=O)O)NC(=O)[C@H](CO)NC(=O)[C@@H](NC(=O)[C@H](Cc1ccccc1)NC(=O)[C@@H](NC(=O)CNC(=O)[C@H](CCC(=O)O)NC(=O)CSCC(=O)NCCN1CCN(C)C(=O)C1=O)[C@@H](C)O)[C@@H](C)O)[C@@H](C)CC)C(C)C)C(N)=O)C(=O)O [Compound 30] | > 1000 | 0.1 to 1 | 0.1 to 1 | 97 | 97 | 1 to 10 | 1 to 10 | 59 | 59 | – | – | – | – | – | –
3 | CCCCCCCCCCCCCCCC(=O)N[C@@H](CCC(=O)NCCCC[C@H](NC(=O)[C@H](CO)NC(=O)[C@@H]1CCCN1C(=O)[C@@H]1CCCN1C(=O)[C@@H]1CCCN1C(=O)[C@H](C)NC(=O)CNC(=O)[C@H](CO)NC(=O)[C@H](CO)NC(=O)[C@@H]1CCCN1C(=O)CNC(=O)CNC(=O)[C@H](C)NC(=O)[C@H](CC(C)C)NC(=O)[C@H](CC(C)C)NC(=O)[C@H](Cc1c[nH]c2ccccc12)NC(=O)[C@H](CC(N)=O)NC(=O)[C@@H](NC(=O)[C@H](Cc1ccccc1)NC(=O)[C@H](CCC(=O)O)NC(=O)C(C)(C)NC(=O)[C@H](C)NC(=O)[C@H](C)NC(=O)[C@H](CCC(N)=O)NC(=O)[C@H](CCCCN)NC(=O)[C@H](CC(=O)O)NC(=O)[C@H](CC(C)C)NC(=O)[C@H](Cc1ccc(O)cc1)NC(=O)[C@@H](NC(=O)[C@H](CO)NC(=O)[C@H](Cc1ccc(O)cc1)NC(=O)[C@H](CC(=O)O)NC(=O)[C@H](CO)NC(=O)[C@@H](NC(=O)[C@H](Cc1ccccc1)NC(=O)[C@@H](NC(=O)CNC(=O)[C@H](CCC(=O)O)NC(=O)CSCC(=O)NCCN1CCCNC1=O)[C@@H](C)O)[C@@H](C)O)[C@@H](C)CC)C(C)C)C(N)=O)C(=O)O [Compound 31] | – | – | – | 102 | 102 | – | – | 37 | 37 | > 1000 | 1 to 10 | 1 to 10 | 10 to 100 | 10 to 100 | –
4 | CCCCCCCCCCCCCCCC(=O)N[C@@H](CCC(=O)NCCCC[C@H](NC(=O)[C@H](CO)NC(=O)[C@@H]1CCCN1C(=O)[C@@H]1CCCN1C(=O)[C@@H]1CCCN1C(=O)[C@H](C)NC(=O)CNC(=O)[C@H](CO)NC(=O)[C@H](CO)NC(=O)[C@@H]1CCCN1C(=O)CNC(=O)CNC(=O)[C@H](C)NC(=O)[C@H](CC(C)C)NC(=O)[C@H](CC(C)C)NC(=O)[C@H](Cc1c[nH]c2ccccc12)NC(=O)[C@H](CC(N)=O)NC(=O)[C@@H](NC(=O)[C@H](Cc1ccccc1)NC(=O)[C@H](CCC(=O)O)NC(=O)C(C)(C)NC(=O)[C@H](C)NC(=O)[C@H](C)NC(=O)[C@H](CCC(N)=O)NC(=O)[C@H](CCCCN)NC(=O)[C@H](CC(=O)O)NC(=O)[C@H](CC(C)C)NC(=O)[C@H](Cc1ccc(O)cc1)NC(=O)[C@@H](NC(=O)[C@H](CO)NC(=O)[C@H](Cc1ccc(O)cc1)NC(=O)[C@H](CC(=O)O)NC(=O)[C@H](CO)NC(=O)[C@@H](NC(=O)[C@H](Cc1ccccc1)NC(=O)[C@@H](NC(=O)CNC(=O)[C@H](CCC(=O)O)NC(=O)CSCC(=O)NCCN1CCNCC1=O)[C@@H](C)O)[C@@H](C)O)[C@@H](C)CC)C(C)C)C(N)=O)C(=O)O [Compound 33] | – | – | – | 100 | 100 | – | – | 43 | 43 | > 1000 | 0.1 to 1 | 0.1 to 1 | 10 to 100 | 10 to 100 | –
5 | CCCCCCCCCCCCCCCC(=O)N[C@@H](CCC(=O)NCCCC[C@H](NC(=O)[C@H](CO)NC(=O)[C@@H]1CCCN1C(=O)[C@@H]1CCCN1C(=O)[C@@H]1CCCN1C(=O)[C@H](C)NC(=O)CNC(=O)[C@H](CO)NC(=O)[C@H](CO)NC(=O)[C@@H]1CCCN1C(=O)CNC(=O)CNC(=O)[C@H](C)NC(=O)[C@H](CC(C)C)NC(=O)[C@H](CC(C)C)NC(=O)[C@H](Cc1c[nH]c2ccccc12)NC(=O)[C@H](CC(N)=O)NC(=O)[C@@H](NC(=O)[C@H](Cc1ccccc1)NC(=O)[C@H](CCC(=O)O)NC(=O)C(C)(C)NC(=O)[C@H](C)NC(=O)[C@H](C)NC(=O)[C@H](CCC(N)=O)NC(=O)[C@H](CCCCN)NC(=O)[C@H](CC(=O)O)NC(=O)[C@H](CC(C)C)NC(=O)[C@H](Cc1ccc(O)cc1)NC(=O)[C@@H](NC(=O)[C@H](CO)NC(=O)[C@H](Cc1ccc(O)cc1)NC(=O)[C@H](CC(=O)O)NC(=O)[C@H](CO)NC(=O)[C@@H](NC(=O)[C@H](Cc1ccccc1)NC(=O)[C@@H](NC(=O)CNC(=O)[C@H](CCC(=O)O)NC(=O)CSCC(=O)NCCN1CC(=O)NC1=O)[C@@H](C)O)[C@@H](C)O)[C@@H](C)CC)C(C)C)C(N)=O)C(=O)O [Compound 34] | – | – | – | 107 | 107 | – | – | 20 to 38 | 20 to 38 | > 1000 | 0.1 to 1 | 0.1 to 1 | 1 to 10 | 1 to 100 | –
6 | CCCCCCCCCCCCCCCC(=O)N[C@@H](CCC(=O)NCCCC[C@H](NC(=O)[C@H](CO)NC(=O)[C@@H]1CCCN1C(=O)[C@@H]1CCCN1C(=O)[C@@H]1CCCN1C(=O)[C@H](C)NC(=O)CNC(=O)[C@H](CO)NC(=O)[C@H](CO)NC(=O)[C@@H]1CCCN1C(=O)CNC(=O)CNC(=O)[C@H](C)NC(=O)[C@H](CC(C)C)NC(=O)[C@H](CC(C)C)NC(=O)[C@H](Cc1c[nH]c2ccccc12)NC(=O)[C@H](CC(N)=O)NC(=O)[C@@H](NC(=O)[C@H](Cc1ccccc1)NC(=O)[C@H](CCC(=O)O)NC(=O)C(C)(C)NC(=O)[C@H](C)NC(=O)[C@H](C)NC(=O)[C@H](CCC(N)=O)NC(=O)[C@H](CCCCN)NC(=O)[C@H](CC(=O)O)NC(=O)[C@H](CC(C)C)NC(=O)[C@H](Cc1ccc(O)cc1)NC(=O)[C@@H](NC(=O)[C@H](CO)NC(=O)[C@H](Cc1ccc(O)cc1)NC(=O)[C@H](CC(=O)O)NC(=O)[C@H](CO)NC(=O)[C@@H](NC(=O)[C@H](Cc1ccccc1)NC(=O)[C@@H](NC(=O)CNC(=O)[C@H](CCC(=O)O)NC(=O)CSCC(=O)NCCN1CCC(C)(C)C1=O)[C@@H](C)O)[C@@H](C)O)[C@@H](C)CC)C(C)C)C(N)=O)C(=O)O [Compound 35] | > 1000 | 0.1 to 1 | 0.1 to 1 | 110 | 110 | 1 to 10 | – | 20 to 37 | 20 to 37 | – | – | – | – | – | 1 to 100
